Values quoted from earlier work as cited in patent US20120129696A1, “METHOD FOR INCREASING THE LEVEL OF FREE AMINO ACIDS IN STORAGE TISSUES OF PERENNIAL PLANTS” (priority 2009, published 2012).

Tested on: wheat plants

**Q.** What does the source list for COC(=O)N(OC)c1ccccc1COc1ccn(-c2ccc(Cl)cc2)n1 [pyraclostrobin]?
**A.** relative content of protein and C/N-ratios, control compared to treated plants: neither the relative content of protein nor C/N-ratios were different; persistence of enhancement of nitrate reduction (after a single application at rates normally used for fungal control at the field site): 3 nights; nitrite and ammonia in the leaves following application (rates normally used for fungal control at the field site): accumulated
